Earlier results in patent publication US20030219799A1, “Cancer-linked gene as target for chemotherapy” (priority 2002, published 2003).

Columns and labels:
cultured cell lines = settings: versus cis-platin and doxorubicin
[1] = in vitro
[2] = in vivo
[3] = tested on: subcutaneous COLO 205 human colon tumor xenografts; settings: mice, subcutaneous COLO 205 xenografts, doses well below the maximum tolerated dose
[4] = tested on: cultured colon cancer cells

Molecule: Cc1c[nH]c2c1[C@@]13C[C@@H]1CN(C(=O)c1cc4cc(NC(=O)c5cc6ccccc6o5)ccc4[nH]1)C3=CC2=O [Adozelesin]
- toxicity to cultured cell lines relative to other DNA interacting agents (cultured cell lines): about 1,000 fold

Molecule: COc1cc2cc(c1Cl)N(C)C(=O)C[C@H](OC(=O)[C@H](C)N(C)C(=O)CCS)[C@]1(C)O[C@H]1[C@H](C)[C@@H]1C[C@@](O)(NC(=O)O1)[C@H](OC)/C=C/C=C(\C)C2 [DM1]
- cytotoxicity relative to maytansine [1]: up to 10 fold

Molecule: COc1cc2cc(c1Cl)N(C)C(=O)C[C@H](OC(=O)[C@H](C)N(C)C(C)=O)[C@]1(C)O[C@H]1[C@H](C)[C@@H]1C[C@@](O)(NC(=O)O1)[C@H](OC)/C=C/C=C(\C)C2 [Maytansine]
- value in human clinical trials [2]: little value

B1: immunoconjugate of the maytansinoid cytotoxin DM1 and C242 antibody: DM1 linked to C242, a murine IgG1 with affinity for a mucin-like glycoprotein of human colorectal cancers (conjugate, chains of the INN, looked up)
VH: QVQLVQSGAEVKKPGETVKISCKASDYTFTYYGMNWVKQAPGQGLKWMGWIDTTTGEPTYAQKFQGRIAFSLETSASTAYLQIKSLKSEDTATYFCARRGPYNWYFDVWGQGTTVTVSS
VL: DIVMTQSPLSVPVTPGEPVSISCRSSKSLLHSNGNTYLYWFLQRPGQSPQLLIYRMSNLVSGVPDRFSGSGSGTAFTLRISRVEAEDVGVYYCLQHLEYPFTFGPGTKLELK
modifications: DM1 maytansinoid conjugate
- anti-tumor effects in vivo [3]: anti-tumor effects
- cytotoxicity against cultured colon cancer cells [4]: highly cytotoxic
